Patent US12624007B2, “Naphthalimide sulfonate derivative, and photoacid generator and photoresist composition which comprise same” (SAMYANG CORPORATION, priority 2020, dated 2026)

Key:
[1] = Thermal stability by thermogravimetric analyzer (5% weight loss temperature); type: physicochemical
Text: Measurement of Thermal Stability
If a photoacid generator is thermally stable in a photoresist preparation process, a very good effect in terms of stability can be expected.

[2] = Measurement of solubility of photoacid generators in photoresist solvents; conditions: for Solubility PGMEA: solvent PGMEA; for Solubility Cyclohexane: solvent cyclohexane

| Compound | Temperature at which 5% weight loss occurred [1] | Solubility PGMEA [2] | Solubility Cyclohexane [2] |
| --- | --- | --- | --- |
| O=C1c2cccc3c(CC4CCCCC4)ccc(c23)C(=O)N1OS(=O)(=O)C(F)(F)F [Compound 5] | 252 °C | 3.1 w/v; % | 7.8 w/v; % |
| O=C1c2cccc3c(CC4CC4)ccc(c23)C(=O)N1OS(=O)(=O)C(F)(F)F [Compound 1, 4-cyclopropanemethyl-naphthalimide trifluoromethane sulfonate] | 242 °C | 9.2 w/v; % | 26.1 w/v; % |
| O=C1c2cccc3cccc(c23)C(=O)N1OS(=O)(=O)C(F)(F)F [Formula V, reference compound] | 223 °C |  |  |
| O=C1c2cccc3c(CCCC4CCCC4)ccc(c23)C(=O)N1OS(=O)(=O)C(F)(F)F [Compound 9] | 258 °C | 6.3 w/v; % | 21.3 w/v; % |
| CC(C)(C)c1cc2c3c(ccc(CC4CCCCC4)c3c1)C(=O)N(OS(=O)(=O)C(F)(F)F)C2=O [Compound 19] | 236 °C | 11.0 w/v; % | 31.2 w/v; % |
